# Data published in patent EP0326331B1, “Substituted quinolines and cinnolines” (Dow AgroSciences LLC, priority 1988, dated 1989).
# Legend:
# Assay type in all cases: in vivo
# [1] = tested on: Venturia inaequalis (apple scab); assay: Test 1 greenhouse foliar spray screen, apple scab on apple seedling; conditions: disease control rating, foliar spray on apple seedling, 400 ppm (+++ at 100 ppm)
# [2] = tested on: southern armyworm (Spodopetra eridania Cramer); assay: Mite/insect screen, SAW; conditions: percent mortality, SAW; for mortality at 200 ppm / mortality at 400 ppm: Spodoptera eridania, read-out: SAW RESULTS %; for mortality at 200 ppm: SM & MA RATE 200 PPM
# How it was run: (§1)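 Percent mortality was scored after standard exposure periods, following spraying of leaves to runoff (both surfaces, 10 psi, 1 h drying) with water dilutions of compound in emulsifier-containing acetone/alcohol (50:50). Armyworms received excised treated leaves in dishes.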
# [3] = tested on: melon aphids (Aphis gossypii Glover); assay: Mite/insect screen, MA; conditions: percent mortality, SAW; for mortality at 200 ppm / mortality at 400 ppm: Aphis gossypii, read-out: MA RESULTS %; for mortality at 200 ppm: SM & MA RATE 200 PPM
# How it was run: as §1
# [4] = tested on: Septoria tritici (leaf blotch); assay: Test 1 greenhouse foliar spray screen, leaf blotch on wheat; conditions: disease control rating, foliar spray on wheat, 400 ppm (+++ at 100 ppm)
# [5] = tested on: Cercospora beticola (leaf spot); assay: Test 1 greenhouse foliar spray screen, leaf spot on sugar beet; conditions: disease control rating, foliar spray on sugar beet, 400 ppm (+++ at 100 ppm)
# [6] = tested on: Pseudoperonospora cubensis (downy mildew); assay: Test 1 greenhouse foliar spray screen, downy mildew on squash; conditions: disease control rating, foliar spray on squash, 400 ppm (+++ at 100 ppm)
# [7] = tested on: Erysiphe graminis tritici (powdery mildew); assay: Test 1 greenhouse foliar spray screen, powdery mildew on wheat; conditions: disease control rating, foliar spray on wheat, 400 ppm (+++ at 100 ppm)
# corn rootworm = assay: Mite/insect screen, CRW; conditions: percent mortality; for mortality at 12 ppm: CRW RATE 12.00 PPM; for mortality at 12 ppm / mortality at 24 ppm: read-out: CRW RESULTS %
# How it was run: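 Corn rootworm mortality (%) was evaluated following standard exposure times. Test material was emulsified by dissolution in acetone/alcohol (1:1) containing sulfonate/nonionic emulsifier blends TOXIMUL R (23 g/L) and TOXIMUL S (13 g/L), and water-diluted to the indicated doses.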
# [8] = tested on: Botrytis cinerea (gray mold); assay: Test 1 greenhouse foliar spray screen, gray mold on grape berries; conditions: disease control rating, spray on grape berries, 400 ppm (+++ at 100 ppm)
# [9] = tested on: Puccinia recondita tritici (leaf rust); assay: Test 1 greenhouse foliar spray screen, leaf rust on wheat; conditions: disease control rating, foliar spray on wheat, 400 ppm (+++ at 100 ppm)
# [10] = tested on: Pyricularia oryzae (rice blast); assay: whole plant or invertebrate; conditions: disease control rating, foliar spray on rice, 400 ppm (+++ at 100 ppm)
# [11] = tested on: Twospotted spider mites (Tetranychus urticae Koch); assay: Mite/insect screen, SM; conditions: percent mortality, SAW; for mortality at 200 ppm / mortality at 400 ppm: Tetranychus urticae, read-out: SM RESULTS %; for mortality at 200 ppm: SM & MA RATE 200 PPM
# How it was run: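 Read-out: percent mortality after standard exposure periods. Test solutions were water dilutions of compound dissolved in acetone/alcohol (50:50) with emulsifier blends; leaves were sprayed to runoff on both surfaces and air-dried for one hour before exposure.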
SMILES,APPL SCAB [1],mortality at 200 ppm [2] [%],mortality at 400 ppm ([2]; SM & MA RATE 400 PPM) [%],SAW RESULTS % ([2]; SM & MA RATE 400 PPM) [%],mortality at 200 ppm [3] [%],mortality at 400 ppm ([3]; SM & MA RATE 400 PPM) [%],MA RESULTS % ([3]; SM & MA RATE 400 PPM) [%],LEAF BLOT [4],LEAF SPOT [5],DOWN MDEW [6],POWD MDEW [7],mortality at 12 ppm (corn rootworm) [%],CRW RESULTS % (corn rootworm; CRW RATE 24.00 PPM) [%],mortality at 24 ppm (corn rootworm; CRW RATE 24.00 PPM) [%],GRAY MOLD [8],LEAF RUST [9],RICE BLAST [10],mortality at 200 ppm [11] [%],mortality at 400 ppm ([11]; SM & MA RATE 400 PPM) [%],SM RESULTS % ([11]; SM & MA RATE 400 PPM) [%]
"COc1ccc(CCNc2ccnc3c(F)cccc23)cc1 [Example 36, 8-fluoro-N-[2-(4-methoxyphenyl)ethyl]-4-quinolinamine]",- (0-19% control at 400 ppm),0,0,0,0,0,0,+++ (90-100% control at 100 ppm),+++ (90-100% control at 100 ppm),+++ (90-100% control at 100 ppm),+ (20-89% control at 400 ppm),0,0,0,- (0-19% control at 400 ppm),+++ (90-100% control at 100 ppm),+++ (90-100% control at 100 ppm),0,0,0
"COc1ccc(CCNc2ccnc3c(F)cccc23)cc1OC [Example 38, N-[2-(3,4-dimethoxyphenyl)ethyl]-8-fluoro-4-quinolinamine]",- (0-19% control at 400 ppm),0,0,,0,0,,- (0-19% control at 400 ppm),+ (20-89% control at 400 ppm),+++ (90-100% control at 100 ppm),+ (20-89% control at 400 ppm),0,,0,- (0-19% control at 400 ppm),++ (90-100% control at 400 ppm),- (0-19% control at 400 ppm),0,0,
"Fc1cc(F)c2nccc(NCCc3ccc(Cl)cc3)c2c1 [Example 41, N-[2-(4-chlorophenyl)ethyl]-6,8-difluoro-4-quinolinamine]",- (0-19% control at 400 ppm),80,40,,0,0,,+ (20-89% control at 400 ppm),+++ (90-100% control at 100 ppm),++ (90-100% control at 400 ppm),+ (20-89% control at 400 ppm),0,,0,- (0-19% control at 400 ppm),+++ (90-100% control at 100 ppm),++ (90-100% control at 400 ppm),0,0,
"COc1ccc(CCNc2ccnc3cc(C(F)(F)F)ccc23)cc1 [Example 42, N-[2-(4-methoxyphenyl)ethyl]-7-(trifluoromethyl)-4-quinolinamine]",- (0-19% control at 400 ppm),0,0,,0,0,,- (0-19% control at 400 ppm),+++ (90-100% control at 100 ppm),+++ (90-100% control at 100 ppm),+++ (90-100% control at 100 ppm),0,,0,- (0-19% control at 400 ppm),++ (90-100% control at 400 ppm),+ (20-89% control at 400 ppm),0,0,
"COc1cccc(CCNc2ccnc3cc(Cl)ccc23)c1 [Example 43, 7-chloro-N-[2-(3-methoxyphenyl)ethyl]-4-quinolinamine]",- (0-19% control at 400 ppm),0,0,,0,0,,- (0-19% control at 400 ppm),+++ (90-100% control at 100 ppm),++ (90-100% control at 400 ppm),+ (20-89% control at 400 ppm),0,,0,- (0-19% control at 400 ppm),- (0-19% control at 400 ppm),+ (20-89% control at 400 ppm),0,0,
"Clc1ccc(CCNc2ccnc3cc(Cl)ccc23)c(Cl)c1 [Example 44, 7-chloro-N-[2-(2,4-dichlorophenyl)ethyl]-4-quinolinamine]",+ (20-89% control at 400 ppm),0,0,,0,0,,- (0-19% control at 400 ppm),+++ (90-100% control at 100 ppm),+++ (90-100% control at 100 ppm),+++ (90-100% control at 100 ppm),0,,0,- (0-19% control at 400 ppm),+ (20-89% control at 400 ppm),+ (20-89% control at 400 ppm),0,0,
"COc1cc(CCNc2ccnc3cc(Cl)ccc23)cc(OC)c1 [Example 45, 7-chloro-N-[2-(3,5-dimethoxyphenyl)ethyl]-4-quinolinamine]",- (0-19% control at 400 ppm),0,0,,0,0,,- (0-19% control at 400 ppm),+++ (90-100% control at 100 ppm),++ (90-100% control at 400 ppm),+ (20-89% control at 400 ppm),0,,0,- (0-19% control at 400 ppm),+ (20-89% control at 400 ppm),++ (90-100% control at 400 ppm),0,0,
